PubChem BioAssay AID1963850 (Molecular Pharmacology Branch, DTP, NCI, 2024)

Test system: 192522-019-R-J2-PDC complex tumor spheroid viability
Assay: Anticancer human tumor 192522-019-R-J2-PDC patient-derived colon adenocarcinoma cell line growth inhibition [POLQ]
Conditions: for IC50: curve of first compound; for viability, T/C: stronger effect = lower value
Method in brief: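 Patient-derived tumour cells were co-cultured with HUVEC and mesenchymal stem cells as multicellular spheroids at 37 °C. They were treated with POLQ inhibitors (novobiocin, ART-558, RP6685) alone or combined with other agents. Top concentrations were at or near clinical Cmax (otherwise 10 microM; SN-38 at 1 microM), decreasing in half-log steps.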

[1] = second compound 0.0316 µM, first compound 0.00316 µM
[2] = second compound 0.0316 µM, first compound 0.01 µM
[3] = second compound 0.0316 µM, first compound 0.0316 µM
[4] = second compound 0.0316 µM, first compound 0.1 µM
[5] = second compound 0.1 µM, first compound 0.00316 µM
[6] = second compound 0.1 µM, first compound 0.01 µM
[7] = second compound 0.1 µM, first compound 0.0316 µM
[8] = second compound 0.1 µM, first compound 0.1 µM
[9] = second compound 0.316 µM, first compound 0.00316 µM
[10] = second compound 0.316 µM, first compound 0.01 µM
[11] = second compound 0.316 µM, first compound 0.0316 µM
[12] = second compound 0.316 µM, first compound 0.1 µM
[13] = second compound 1 µM, first compound 0.00316 µM
[14] = second compound 1 µM, first compound 0.01 µM
[15] = second compound 1 µM, first compound 0.0316 µM
[16] = second compound 1 µM, first compound 0.1 µM
[17] = second compound 3.16 µM, first compound 0.00316 µM
[18] = second compound 3.16 µM, first compound 0.01 µM
[19] = second compound 3.16 µM, first compound 0.0316 µM
[20] = second compound 3.16 µM, first compound 0.1 µM
[21] = second compound 10 µM, first compound 0.00316 µM
[22] = second compound 10 µM, first compound 0.01 µM
[23] = second compound 10 µM, first compound 0.0316 µM
[24] = second compound 10 µM, first compound 0.1 µM
[25] = second compound 0.0316 µM, first compound 0.316 µM
[26] = second compound 0.0316 µM, first compound 1 µM
[27] = second compound 0.1 µM, first compound 0.316 µM
[28] = second compound 0.1 µM, first compound 1 µM
[29] = second compound 0.316 µM, first compound 0.316 µM
[30] = second compound 0.316 µM, first compound 1 µM
[31] = second compound 1 µM, first compound 0.316 µM
[32] = second compound 1 µM, first compound 1 µM
[33] = second compound 3.16 µM, first compound 0.316 µM
[34] = second compound 3.16 µM, first compound 1 µM
[35] = second compound 10 µM, first compound 0.316 µM
[36] = second compound 10 µM, first compound 1 µM
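Also: spheroids exposed to drugs for seven days before reading.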
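For viability, T/C in this document: 100% = DMSO vehicle control viability in luminescence.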

Work on `CC[C@@]1(O)C(=O)OCc2c1cc1n(c2=O)Cc2cc3c(CN(C)C)c(O)ccc3nc2-1` + Nc1ccc(C#CCN(C(=O)Cc2ncc(C(F)(F)F)cc2C(F)(F)F)c2ccc(F)cc2)nn1 yielded an IC50 (second compound 0.0316 µM) greater than 100 nM, an IC50 (second compound 0.1 µM) greater than 100 nM and an IC50 (second compound 0.316 µM) greater than 100 nM. For the same compound, the IC50 (second compound 1 µM) was greater than 100 nM, the IC50 (second compound 3.16 µM) was greater than 100 nM and the IC50 (second compound 10 µM) was greater than 100 nM. It also gave a viability, T/C (second compound 0.0316 µM, first compound 0.000316 µM) of 96.2%, a viability, T/C (second compound 0.0316 µM, first compound 0.001 µM) of 103% and a viability, T/C [1] of 97.1%. It also gave a viability, T/C [2] of 108%, a viability, T/C [3] of 98.5% and a viability, T/C [4] of 77.3%. It also gave a viability, T/C (second compound 0.1 µM, first compound 0.000316 µM) of 111%, a viability, T/C (second compound 0.1 µM, first compound 0.001 µM) of 105% and a viability, T/C [5] of 103%. The viability, T/C [6] was 99%, the viability, T/C [7] was 107% and the viability, T/C [8] was 79.1%. The viability, T/C (second compound 0.316 µM, first compound 0.000316 µM) was 107%, the viability, T/C (second compound 0.316 µM, first compound 0.001 µM) was 109% and the viability, T/C [9] was 97.8%. For the same compound, the viability, T/C [10] was 103%, the viability, T/C [11] was 95.7% and the viability, T/C [12] was 77.7%. The viability, T/C (second compound 1 µM, first compound 0.000316 µM) was 113%, the viability, T/C (second compound 1 µM, first compound 0.001 µM) was 104% and the viability, T/C [13] was 106%. It also gave a viability, T/C [14] of 109%, a viability, T/C [15] of 97.8% and a viability, T/C [16] of 78.2%. The viability, T/C (second compound 3.16 µM, first compound 0.000316 µM) was 99.6%, the viability, T/C (second compound 3.16 µM, first compound 0.001 µM) was 99.9% and the viability, T/C [17] was 103%. For the same compound, the viability, T/C [18] was 99.3%, the viability, T/C [19] was 97.5% and the viability, T/C [20] was 84.8%. The viability, T/C (second compound 10 µM, first compound 0.000316 µM) was 106%, the viability, T/C (second compound 10 µM, first compound 0.001 µM) was 94.7% and the viability, T/C [21] was 101%. For the same compound, the viability, T/C [22] was 95.1%, the viability, T/C [23] was 92.3% and the viability, T/C [24] was 87%.

Compound `CCc1c2c(nc3ccc(O)cc13)-c1cc3c(c(=O)n1C2)COC(=O)[C@]3(O)CC` + Nc1ccc(C#CCN(C(=O)Cc2ncc(C(F)(F)F)cc2C(F)(F)F)c2ccc(F)cc2)nn1 has an IC50 (second compound 0.0316 µM) of 232 nM, an IC50 (second compound 0.1 µM) of 176 nM and an IC50 (second compound 0.316 µM) of 204 nM. It also gave an IC50 (second compound 1 µM) of 129 nM, an IC50 (second compound 3.16 µM) of 160 nM and an IC50 (second compound 10 µM) of 111 nM. For the same compound, the viability, T/C [1] was 92.1%, the viability, T/C [2] was 75.4% and the viability, T/C [3] was 70.3%. For the same compound, the viability, T/C [4] was 62.1%, the viability, T/C [25] was 44.2% and the viability, T/C [26] was 35.7%. For the same compound, the viability, T/C [5] was 94.8%, the viability, T/C [6] was 77.6% and the viability, T/C [7] was 78.6%. It also gave a viability, T/C [8] of 60%, a viability, T/C [27] of 38.1% and a viability, T/C [28] of 31%. It also gave a viability, T/C [9] of 99%, a viability, T/C [10] of 76.2% and a viability, T/C [11] of 78.8%. The viability, T/C [12] was 57%, the viability, T/C [29] was 43.5% and the viability, T/C [30] was 31.9%. For the same compound, the viability, T/C [13] was 103%, the viability, T/C [14] was 71.5% and the viability, T/C [15] was 69.8%. For the same compound, the viability, T/C [16] was 57.6%, the viability, T/C [31] was 36.4% and the viability, T/C [32] was 31%. For the same compound, the viability, T/C [17] was 96.9%, the viability, T/C [18] was 79.8% and the viability, T/C [19] was 72.5%. For the same compound, the viability, T/C [20] was 56%, the viability, T/C [33] was 39.4% and the viability, T/C [34] was 36.5%. The viability, T/C [21] was 94%, the viability, T/C [22] was 76.7% and the viability, T/C [23] was 71.5%. It also gave a viability, T/C [24] of 50.6%, a viability, T/C [35] of 36.2% and a viability, T/C [36] of 34.4%.

`CNCc1ccc(-c2[nH]c3cc(F)cc4c3c2CCNC4=O)cc1` + Nc1ccc(C#CCN(C(=O)Cc2ncc(C(F)(F)F)cc2C(F)(F)F)c2ccc(F)cc2)nn1 was tested, and the IC50 (second compound 0.0316 µM) was greater than 10000 nM, the IC50 (second compound 0.1 µM) was greater than 10000 nM and the IC50 (second compound 0.316 µM) was greater than 10000 nM. It also gave an IC50 (second compound 1 µM) greater than 10000 nM, an IC50 (second compound 3.16 µM) greater than 10000 nM and an IC50 (second compound 10 µM) greater than 10000 nM. The viability, T/C [3] was 103%, the viability, T/C [4] was 106% and the viability, T/C [25] was 102%. The viability, T/C [26] was 113%, the viability, T/C (second compound 0.0316 µM, first compound 3.16 µM) was 122% and the viability, T/C (second compound 0.0316 µM, first compound 10 µM) was 111%. It also gave a viability, T/C [7] of 105%, a viability, T/C [8] of 98.7% and a viability, T/C [27] of 110%. The viability, T/C [28] was 102%, the viability, T/C (second compound 0.1 µM, first compound 3.16 µM) was 104% and the viability, T/C (second compound 0.1 µM, first compound 10 µM) was 105%. It also gave a viability, T/C [11] of 107%, a viability, T/C [12] of 106% and a viability, T/C [29] of 96.5%. It also gave a viability, T/C [30] of 103%, a viability, T/C (second compound 0.316 µM, first compound 3.16 µM) of 106% and a viability, T/C (second compound 0.316 µM, first compound 10 µM) of 107%. The viability, T/C [15] was 119%, the viability, T/C [16] was 100% and the viability, T/C [31] was 105%. The viability, T/C [32] was 104%, the viability, T/C (second compound 1 µM, first compound 3.16 µM) was 111% and the viability, T/C (second compound 1 µM, first compound 10 µM) was 107%. The viability, T/C [19] was 103%, the viability, T/C [20] was 108% and the viability, T/C [33] was 95.3%. For the same compound, the viability, T/C [34] was 104%, the viability, T/C (second compound 3.16 µM, first compound 3.16 µM) was 110% and the viability, T/C (second compound 3.16 µM, first compound 10 µM) was 101%. For the same compound, the viability, T/C [23] was 108%, the viability, T/C [24] was 101% and the viability, T/C [35] was 105%. It also gave a viability, T/C [36] of 102%, a viability, T/C (second compound 10 µM, first compound 3.16 µM) of 110% and a viability, T/C (second compound 10 µM, first compound 10 µM) of 106%.
